Entries after “also recorded” stand apart in the source; their conditions may differ.
Tests used:
synaptopodin (G1D4) = test: Glomerular synaptopodin (G1D4) fraction in the kidney of ZDF rats; assay type: in vivo, rat; conditions: ZDF fatty rats, age 19 weeks; for Glomerular synaptopodin (G1D4) fraction, Positive Area (%): 2 × 25 mg/kg/d p.o., mean ± SEM
Procedure: Synaptopodin (G1D4) was detected with a monoclonal mouse IgG antibody (#61094, Progen). For each rat, 40 glomeruli out of two consecutive sections were selected at random. The synaptopodin (G1D4) positive area in the mesangium was measured with the Ariol SL-50 automated microscope (Applied Imaging Int. Ltd.) scanning sections at X20 (scale x/y: 1 pixel=0.36×0.36 μm^2) and setting a circular measure field of 2400 μm^2 in the centre of the glomerulus. The positive labeled area of synaptopodin (G1D4) was calculated as percentage of tissue area in the measure field. For each animal, the mean out of 40 glomeruli was calculated. Statistical comparisons were performed by unpaired Mann-Whitney-test. Data are mean±SEM.
The antibody clone G1D4 recognized differentiated podocytes (glomerular visceral epithelial cells).

AMPK [1] = test: AMPK activation in muscle cells; assay type: cell-based; conditions: different doses, FIG. 2
[2] = system: ROS production linked to the reverse electron flux through complex I; test: ROS production in rat liver after oral administration; assay type: in vivo; conditions: fasted Wistar rats, 50 mg/kg/day in drinking water for at least 10 days, succinate alone or with glutamate/malate
Procedure: (§1) The efficacy of 5,6-dihydro-4-dimethylamino-2-imino-6-methyl-1,3,5-triazine was tested if once administrated (50 mg/kg/day) to drinking water of fasted Wistar rats for at least 10 days. This approach was more physiological than subcutaneous injection at elevated dose. […] The effect was observed both in rat liver (FIG. 4) and in human micro-vascular endothelial cells (HMEC; Table 2).

[3] = system: human micro-vascular endothelial cells (HMEC-1); test: ROS production in HMEC-1; assay type: cell-based
Procedure: as §1

AMPK [4] = test: AMPK activation in hepatocyte cells; assay type: cell-based; conditions: different doses, FIG. 1
Excerpt: The AMPK activation in hepatocytes is given in the gel electrophoresis pictures. The supplemental diagram visualizes the degree of AMPK activation in hepatocytes quantitatively.

[5] = ob/ob and db/db mice, 8 day administration; cited from earlier work

Row | SMILES | glomerular fraction of synaptopodin (effect of treatment in words) (synaptopodin (G1D4)) | Glomerular synaptopodin (G1D4) fraction, Positive Area (%) (synaptopodin (G1D4)) | AMPK activity in muscle cells (AMPK [1]) | ROS production linked to the reverse electron flux through complex I [2] | ROS production, H2O2 ([3]; substrate GMS, additions: None) | ROS production, H2O2 ([3]; substrate GMS, additions: Rot + antimycin A (AA)) | ROS production, H2O2 ([3]; substrate GMS, additions: Rotenone (Rot)) | ROS production, H2O2 ([3]; substrate Glutamate + Malate (GM), additions: None) | ROS production, H2O2 ([3]; substrate Glutamate + Malate (GM), additions: Rot + antimycin A (AA)) | ROS production, H2O2 ([3]; substrate Glutamate + Malate (GM), additions: Rotenone (Rot)) | ROS production, H2O2 ([3]; substrate Succinate (S), additions: None) | ROS production, H2O2 ([3]; substrate Succinate (S), additions: Rot + antimycin A (AA)) | ROS production, H2O2 ([3]; substrate Succinate (S), additions: Rotenone (Rot)) | AMPK activation in hepatocytes (AMPK [4]) | reduction of blood glucose [5]
1 | CC1NC(=N)N=C(N(C)C)N1 (centres unmarked) [EMD008, 5,6-dihydro-4-dimethylamino-2-imino-6-methyl-1,3,5-triazine] | moderately increased | 45 ± 3% | significantly increased AMPK activity; also recorded: dose dependent and even stronger than metformin's effect | time-dependently inhibited the ROS production | 15.7 ± 1.4 pmol/min/10^7 HMEC-1 cells | 18.6 ± 1.3 pmol/min/10^7 HMEC-1 cells | 6.9 ± 1.1 pmol/min/10^7 HMEC-1 cells | 28.4 ± 2.2 pmol/min/10^7 HMEC-1 cells | 51.4 ± 8.7 pmol/min/10^7 HMEC-1 cells | 37.5 ± 1.5 pmol/min/10^7 HMEC-1 cells | 14.5 ± 1.3 pmol/min/10^7 HMEC-1 cells | 19.1 ± 3.2 pmol/min/10^7 HMEC-1 cells | 11.4 ± 2.7 pmol/min/10^7 HMEC-1 cells | significant activation of AMPK | 
2 | CN(C)C(=N)NC(=N)N [Metformin, reference compound] | no effect | 38 ± 4% |  |  |  |  |  |  |  |  |  |  |  |  | 
3 | NC(=O)c1ncn([C@@H]2O[C@H](CO)[C@@H](O)[C@H]2O)c1N [AICAR, 5-aminoimidazole-4-caboxamide-1beta-riboside] |  |  |  |  |  |  |  |  |  |  |  |  |  |  | 35%
